The values that follow come from publication PMC5847527, “Identification of a novel 2-oxindole fluorinated derivative as in vivo antitumor agent for prostate cancer acting via AMPK activation” (Scientific Reports, 2018).

Series [1] concerns the target T1, AMPK (Homo sapiens, UniProt Q13131).
T1 construct: endogenous in cells; host or cells: PC-3, DU145, LNCaP
Nature of the series: AMPK and ACC phosphorylation by Western blot in PC-3 cells. The note with it: 25 µM, 1 hour; for Thr172 phosphorylation of AMPK (pAMPK/AMPK): compared to controls. Type of series: cell-based. An excerpt:
To investigate the effect of the compounds on AMPK activity at cellular level, compounds 8a-c and 9a-b were selected to perform AMPK phosphorylation assays in human prostate cancer cell lines. We use the PC-3 cell line as it is androgen-resistant and represents the advanced and aggressive stage of prostate cancer. […] AMPK inhibits lipogenic pathway through phosphorylation of its well-known substrate acetyl-CoA carboxylase (ACC). To confirm the modulation of AMPK activity in prostate cells by the compounds, we determined levels of phosphorylated ACC in 2-oxindole fluorinated derivatives-treated cells. […] It is worthy to note that the highest ACC phosphorylation was obtained with compound 8c denoting a powerful activity of this compound in PC-3 cells.
(§1) Figure 2 Effect of 2-oxindole fluorinated derivatives on AMPK activity in prostate cancer cells. (A) PC-3, DU145 and LNCaP cells were treated with 25 µM of the selected 2-oxindole fluorinated derivatives for 1 hour. Levels of the phosphorylated AMPK (pAMPK), phosphorylated ACC (pACC) and their total forms were determined by Western blot. Upper panel, a representative Western blot of three different experiments. β-tubulin (β-Tub) serves as a loading control. […] Lower panels, densitometric analyses of bands represented as the mean of the ratio pAMPK/AMPK or pACC/ACC ± SD of three different experiments. *p < 0.05 compared with the controls by one-way ANOVA followed by Fisher’s LSD test; ^#p < 0.05 compared with 2-oxindole fluorinated derivates or with the AMPK activators AMP or A769662 by one-way ANOVA followed by Tukey test.
(§2) Human prostate cancer epithelial PC-3, DU145 and LNCaP and human prostate normal RWPE-1 cells were purchased from American Type Culture Collection (ATCC CRL-1435 CRL-1740 and CRL 11609 respectively) (Rockville, MD, USA). The human prostate normal PNT2 cell line was purchased to ECACC (European Collection of Cell cultures, Salisbury, SP4 0JG, UK). Cells were routinely grown in RPMI 1640 medium supplemented with 100 IU/ml penicillin G sodium, 100 µg/ml streptomycin sulfate, 0.25 µg/ml amphotericin B (Invitrogen, Paisley, UK) and 10% fetal calf serum. Cells were used at passages between 10–20. For treatment experiments, cells were plated and grown over night, the medium was then replaced with serum-free RPMI 1640 for 24 hours and then incubated with different doses of the compounds for the indicated times.
Cells were lysed in Lysis buffer (50 mM Tris pH 7.4, 0.8 M NaCl, 5 mM MgCl2, 0.1% Triton X-100) containing Protease Inhibitor and Phosphatase inhibitor Cocktails (Roche, Basel, Switzerland). Protein concentrations were measured by BioRad™ protein assay kit (Richmond, CA, USA). Equal amount of protein (20 μg) from each sample was separated on 8% SDS–PAGE gels and transferred to PVDF membranes (BioRad). The membranes were blocked with blocking buffer (1× TBS, 0.1% Tween 20 with 5% w/v fat-free dry milk), washed and incubated with primary antibodies at 4 °C for 12 h. The membranes were subsequently washed with TBS-T (1× TBS and 0.1% Tween 20) and incubated with horseradish peroxidase-conjugated anti-mouse or anti-rabbit IgG antibodies (Sigma, St Louis, MO, USA) at room temperature for 1 h. The immune complex was visualized with an ECL system (Cell Signaling Technology). Films were analyzed by densitometry. The anti-pAMPKα1-thr172, pACC-ser79, pP53, P21, pRaptor and the antibodies against the corresponding total forms were obtained from Cell Signaling Technology (Danvers, MA, USA). The anti-caspase 3 and anti-procaspase 3 were from Santa Cruz Biotechnology (Dallas, Texas, USA). The anti-HIF1A was from Novus Biologicals LLC (Littleton, CO, USA). The anti-Cyclin D1 antibody was obtained from ThermoFisher (Alcobendas, Madrid, Spain). All the other chemicals were obtained from Sigma (St. Louis, MO, USA).
Background: A western blot detects proteins with antibodies after separation by electrophoresis.

Series [2] deals with AMPK. Nature of the series: AMPK and ACC phosphorylation by Western blot in LNCaP cells. To be noted: 25 µM, 1 hour. In kind it is cell-based, human. The protocol: as §1
Similar results were obtained although AMPK stimulation by compound 8c was not so strong (Fig. 2A). […]
Cells were lysed in Lysis buffer (50 mM Tris pH 7.4, 0.8 M NaCl, 5 mM MgCl2, 0.1% Triton X-100) containing Protease Inhibitor and Phosphatase inhibitor Cocktails (Roche, Basel, Switzerland). Protein concentrations were measured by BioRad™ protein assay kit (Richmond, CA, USA). […] Films were analyzed by densitometry. […]

The next series has as its system PC-3 cells. Description: Cell viability by MTT assay, PC-3. The note with it: PC-3, 50 μM. In kind it is cell-based, human. As for the experimental part:
(§3) Figure 3 Comparison of the effect of 2-oxindole fluorinated derivatives on the proliferation of human prostate cancer cells. (A) Normal (PTN2 and RWPE-1) and cancer (PC3,DU145 and LNCaP) prostate cells were treated with different doses of the compounds for 24 hours and cell viability was monitored by MTT assay. […] (C) PC-3, DU145 and LNCaP cells were treated with 25 µM of compound 8c for different times. Values were normalized with the control and represent the mean ± SD of at least three independent experiments. *p < 0.05 and **p < 0.01 compared to control by the Student’s - test.
as §2
(§4) Cell viability was determined by 3-(4,5-dimethylthiazol-2-yl)-2,5-diphenyltetrazolium bromide (MTT) (Sigma-Aldrich) method. In brief, a total of 5000 cells/well were seeded into 12-well plate in a final volume of 1 mL. After treatments, 20 µl MTT solution (5 mg/ml in PBS) was added to the medium and cells were incubated at 37 °C for 4 h. Then, the supernatant was discarded and isopropanol was added to dissolve the formazan crystals. Treatments were carried out in triplicate. The optical density in each well was evaluated by measurement of absorbance at 490 and 650 nm using a microplate reader (ELX 800 Bio-Tek Intruments, INC). IC50 values were calculated using GraphPad Prism vs 6.0 (GraphPad Software, Inc, La Jolla, CA, USA). Cell viability was also determined by counting viable and dead cells by Trypan blue staining. Trypan blue positive and negative cells were counted using a Countess^TM automated cell counter (Invitrogen, Carlsbad, CA, USA). Results were expressed in relation to total number of cells counted.
In general terms: Formazan colour is commonly taken as a measure of viable cells.

A further series has as its system DU145 cells. Nature of the series: Cell viability by MTT assay, DU145. In kind it is cell-based, human. To be noted: DU145, 50 μM. The protocol:
as §3, §2, §4

Another series concerns LNCaP cells. Description: Cell viability by MTT assay, LNCaP. In kind it is cell-based, human. To be noted: 50 μM. The protocol:
as §3, §2
as §4, with “In brief, a total of 5000 cells/well were seeded into 12-well plate in a final volume of 1 mL. After treatments, 20 µl MTT solution (5 mg/ml in PBS) was added to the medium and cells were incubated at 37 °C for 4 h. Then, the supernatant was discarded and isopropanol was added to dissolve the formazan crystals. Treatments were carried out in triplicate.” left out

A further series deals with PNT2 cells. Nature of the series: Cell viability by MTT assay, PNT2 normal prostate cells. To be noted: PNT2, 50 μM. In kind it is cell-based, human. As for the experimental part:
as §3, §2
as §4, with “In brief, a total of 5000 cells/well were seeded into 12-well plate in a final volume of 1 mL. After treatments, 20 µl MTT solution (5 mg/ml in PBS) was added to the medium and cells were incubated at 37 °C for 4 h. Then, the supernatant was discarded and isopropanol was added to dissolve the formazan crystals. Treatments were carried out in triplicate.” left out

A further series concerns RWPE-1 cells. Nature of the series: Cell viability by MTT assay, RWPE-1 normal prostate cells. Type of series: cell-based, human. The note with it: RWPE-1, 50 μM. The protocol:
as §3, §2
as §4, with “In brief, a total of 5000 cells/well were seeded into 12-well plate in a final volume of 1 mL. After treatments, 20 µl MTT solution (5 mg/ml in PBS) was added to the medium and cells were incubated at 37 °C for 4 h. Then, the supernatant was discarded and isopropanol was added to dissolve the formazan crystals. Treatments were carried out in triplicate.” left out

For series [3], the system named is AMPK. Nature of the series: Characterization of AMPK activation by Western blot in PC-3 and LNCaP cells (Dorsomorphin, siRNA). In kind it is cell-based, human. To be noted: PC-3 and LNCaP cells, 5 μM Dorsomorphin + 25 µM 8c, 1 h and 24 h. As for the experimental part:
To further confirm the compound 8c-induced activation of AMPK, PC-3 and LNCaP cells were incubated with the compound for 1 h and 24 hours in the presence of the AMPK inhibitor Dorsomorphin. […] Accordingly, ACC phosphorylation was increased at 1 h and 24 h and prevented by Dorsomorphin in both cell lines. AMPK inhibits mTORC1 through phosphorylation of Raptor on two well-conserved serine residues (ser722 and ser792) inducing cell-cycle arrest in response to an energy stress. To further support the 8c-induced AMPK activation, we determined Raptor phosphorylation on Ser792 in prostate cells.
Figure 5 AMPK activation by compound 8c in prostate cancer cells. (A) PC-3 and LNCaP cells were treated with vehicle, 25 µM compound 8c, 25 µM compound 8c + 5 μM Dorsomorphin (8c + D) or 5 μM Dorsomorphin (D), for 1 hour or 24 hours and levels of the phosphorylated AMPK (pAMPK), phosphorylated ACC (pACC), phosphorylated Raptor (pRaptor) forms and HIF1α were determined by Western blot. Upper panel, representative Western blot of three different experiments. β-tubulin (β-Tub) serves as a loading control. Lower panel, densitometric analyses of bands represented as the mean of the ratio pAMPK/AMPK or pACC/ACC. (B) Cell viability monitored by MTT assay in PC-3 and LNCaP cells treated with vehicle, 25 µM and 50 μM compound 8c alone or in the presence of 5 μM Dorsomorphin or transfected with control siRNA (siC) or α1AMPK-selective siRNA (siAMPK). (C) LNCaP cells were treated with vehicle, 25 µM compound 8c, 25 µM compound 8c + 5 μM Dorsomorphin (8c + D) or 5 μM Dorsomorphin (D), for 24 hours and levels of Androgen Receptor (AR), Prostate specific antigen (PSA) and Prostate specific membrane antigen (PSMA) were determined by Western blot.Values were normalized with the control and represent the mean ± SD of at least three independent experiments. *p < 0.05 and **p < 0.01 compared to control and ^#p < 0.05 and ^##p < 0.01 compared with 8c-treated group by the Student’s t-test.
AMPK is a heterotrimeric protein composed by catalytic (α) and regulatory (β and γ) subunits. In mammals, different isoforms of α, β and γ subunits can associate to produce up to 12 AMPK different combinations. […]
Figure 6 Phosphorylation of AMPK and ACC in prostate cells transfected with selective AMPKα1 or AMPKα2 siRNA. […] Levels of the phosphorylated AMPK (pAMPK), phosphorylated ACC (pACC) and their total forms were determined by Western blot. […]
Cells were lysed in Lysis buffer (50 mM Tris pH 7.4, 0.8 M NaCl, 5 mM MgCl2, 0.1% Triton X-100) containing Protease Inhibitor and Phosphatase inhibitor Cocktails (Roche, Basel, Switzerland). Protein concentrations were measured by BioRad™ protein assay kit (Richmond, CA, USA). […]

Series [4] has as its system PTN2, RWPE-1, PC3, DU145 and LNCaP prostate cells. Nature of the series: Cell viability by MTT assay, statements for the five cell lines together. The note with it: 1–100 µM, dose-dependent, 24 hours. Type of series: cell-based, human.
Method: We then study the effect of the compounds on the proliferative capacity of PC-3, DU145 and LNCaP prostate cells. We also used the prostate cell lines PTN2 and RWPE-1 which are derived from a histologically normal adult and therefore are considered as normal prostate cells, for comparison. All the compounds were tested at concentrations ranging from 1 to 100 μM.
(A) Normal (PTN2 and RWPE-1) and cancer (PC3,DU145 and LNCaP) prostate cells were treated with different doses of the compounds for 24 hours and cell viability was monitored by MTT assay. […] Values were normalized with the control and represent the mean ± SD of at least three independent experiments. *p < 0.05 and **p < 0.01 compared to control by the Student’s - test.
Human prostate cancer epithelial PC-3, DU145 and LNCaP and human prostate normal RWPE-1 cells were purchased from American Type Culture Collection (ATCC CRL-1435 CRL-1740 and CRL 11609 respectively) (Rockville, MD, USA). The human prostate normal PNT2 cell line was purchased to ECACC (European Collection of Cell cultures, Salisbury, SP4 0JG, UK). Cells were routinely grown in RPMI 1640 medium supplemented with 100 IU/ml penicillin G sodium, 100 µg/ml streptomycin sulfate, 0.25 µg/ml amphotericin B (Invitrogen, Paisley, UK) and 10% fetal calf serum. Cells were used at passages between 10–20. […]
Cell viability was determined by 3-(4,5-dimethylthiazol-2-yl)-2,5-diphenyltetrazolium bromide (MTT) (Sigma-Aldrich) method. […] The optical density in each well was evaluated by measurement of absorbance at 490 and 650 nm using a microplate reader (ELX 800 Bio-Tek Intruments, INC). IC50 values were calculated using GraphPad Prism vs 6.0 (GraphPad Software, Inc, La Jolla, CA, USA). Cell viability was also determined by counting viable and dead cells by Trypan blue staining. Trypan blue positive and negative cells were counted using a Countess^TM automated cell counter (Invitrogen, Carlsbad, CA, USA). Results were expressed in relation to total number of cells counted.

Several values for one entry are separate records, joined by “and”; a condition that tells them apart may be missing. Equal entries are not always repeated.

T1 sequence (Q13131 whole entry): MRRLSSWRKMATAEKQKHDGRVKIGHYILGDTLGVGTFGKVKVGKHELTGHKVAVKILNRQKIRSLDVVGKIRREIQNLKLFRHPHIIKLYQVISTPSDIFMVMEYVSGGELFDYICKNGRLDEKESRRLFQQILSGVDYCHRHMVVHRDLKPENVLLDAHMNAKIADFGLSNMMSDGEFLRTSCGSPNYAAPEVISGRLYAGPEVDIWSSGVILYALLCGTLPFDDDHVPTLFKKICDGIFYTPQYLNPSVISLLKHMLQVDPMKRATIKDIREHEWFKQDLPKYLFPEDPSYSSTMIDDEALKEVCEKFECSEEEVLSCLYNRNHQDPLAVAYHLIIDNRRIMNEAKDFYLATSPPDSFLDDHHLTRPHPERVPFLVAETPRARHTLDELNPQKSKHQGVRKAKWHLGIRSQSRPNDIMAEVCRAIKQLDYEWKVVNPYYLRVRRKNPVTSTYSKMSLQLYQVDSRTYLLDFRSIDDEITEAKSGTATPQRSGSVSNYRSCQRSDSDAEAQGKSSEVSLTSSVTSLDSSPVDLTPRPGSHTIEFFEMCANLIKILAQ
T1 sequence (Q9Y478 2-270 partner limits assumed): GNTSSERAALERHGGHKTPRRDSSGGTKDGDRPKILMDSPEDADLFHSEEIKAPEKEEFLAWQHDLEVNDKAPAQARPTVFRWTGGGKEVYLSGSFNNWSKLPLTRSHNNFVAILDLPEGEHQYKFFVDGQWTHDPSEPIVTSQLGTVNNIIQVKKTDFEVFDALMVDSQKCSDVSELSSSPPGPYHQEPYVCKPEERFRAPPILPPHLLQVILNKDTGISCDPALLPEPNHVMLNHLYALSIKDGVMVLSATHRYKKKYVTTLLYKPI
T1 sequence (P54619 whole entry partner): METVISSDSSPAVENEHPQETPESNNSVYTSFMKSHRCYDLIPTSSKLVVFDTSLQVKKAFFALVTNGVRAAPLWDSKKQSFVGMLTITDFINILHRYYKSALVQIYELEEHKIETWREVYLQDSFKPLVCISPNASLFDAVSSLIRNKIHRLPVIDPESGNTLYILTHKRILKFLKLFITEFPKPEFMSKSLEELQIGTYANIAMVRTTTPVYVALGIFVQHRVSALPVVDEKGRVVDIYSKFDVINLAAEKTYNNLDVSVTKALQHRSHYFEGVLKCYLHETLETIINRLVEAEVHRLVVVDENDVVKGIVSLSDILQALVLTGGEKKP

For `O=C1N(Cc2ccccc2)c2ccc(Cl)cc2C1(F)Cc1ccc(N2CCCC2)cc1` (stereo not shown) [Compound 9b, 1-benzyl-5-chloro-3-fluoro-3-(4-(pyrrolidin-1-yl)benzyl)indolin-2-one], at AMPK [1], the “ACC phosphorylation (pACC/ACC)” value was “augmented pACC” and the “Thr172 phosphorylation of AMPK (pAMPK/AMPK)” value is “weak AMPK activation”. For the same molecule, in the series on AMPK [2], the “AMPK phosphorylation (pAMPK/AMPK)” value was “slightly increases AMPK phosphorylation in PC-3 cells but not in LNCaP cells”. Also, the “inhibitory efficacy on cells viability at 50 μM” value (“inhibitory efficacy” for short) in the series with PC-3 cells is 27% and 23%. For the same molecule, the “inhibitory efficacy” value in the series with DU145 cells is 14% and 17%.

In the case of `O=C1Nc2ccc(Cl)cc2C1(F)Cc1ccc(N2CCCC2)cc1` (stereo not shown) [Compound 8b, 5-chloro-3-fluoro-3-(4-(pyrrolidin-1-yl)benzyl)indolin-2-one], at AMPK [1], the “ACC phosphorylation (pACC/ACC)” value was “inhibited ACC phosphorylation”. Besides, the “Thr172 phosphorylation of AMPK (pAMPK/AMPK)” value at AMPK [1] was “slightly, although significantly, inhibited AMPK phosphorylation”. Moreover, the “inhibitory efficacy” value with PC-3 cells is given as 3%; in the series on DU145 cells, 14%; in the series with LNCaP cells, 11%; in the series with PNT2 cells it was 0%; in the series with RWPE-1 cells, 17%.

Take `c1cc(-c2cnn3cc(-c4ccc(OCCN5CCCCC5)cc4)cnc23)ccn1` [Dorsomorphin, reference compound]: in the series on AMPK [3], the “effect on AMPK activation by compound 8c” value was “blocked AMPK activation by compound 8c both at 1 h and 24 h”.

For the molecule `O=C1Nc2ccccc2C1(F)Cc1ccc[nH]1` (stereo not shown) [Compound 8a, 3-((1H-pyrrol-2-yl)methyl)-3-fluoroindolin-2-one], the melting point fell in the range of 143 to 146 °C. For the same molecule, at AMPK [1], the “ACC phosphorylation (pACC/ACC)” value is listed as “inhibited ACC phosphorylation” and the “Thr172 phosphorylation of AMPK (pAMPK/AMPK)” value is given as “slightly, although significantly, inhibited AMPK phosphorylation”.

As to `O=C1N(Cc2ccccc2)c2ccccc2C1(F)Cc1ccc[nH]1` (stereo not shown) [Compound 9a, 3-((1H-pyrrol-2-yl)methyl)-1-benzyl-3-fluoroindolin-2-one], at AMPK [1], the “ACC phosphorylation (pACC/ACC)” value was “inhibited ACC phosphorylation” and the “Thr172 phosphorylation of AMPK (pAMPK/AMPK)” value is “slightly, although significantly, inhibited AMPK phosphorylation”. Besides, the “inhibition of cell proliferation” value in [4] is reported as “effectively inhibited cell proliferation”.

The term melting point denotes the temperature of the solid-liquid transition.
